Laboratory results as given in patent US20240294541A1, “COMPOUNDS CONSTITUTING C20-MODIFIED SALINOMYCIN DERIVATIVES, A METHOD FOR OBTAINING THE SAME, A COMPOSITION CONTAINING THE SAME AND A USE OF SAID COMPOUNDS” (FILECLO SPOLKA Z OGRANICZONA ODPOWIEDZIALNOSCIA, priority 2021, published 2024).
Like-named read-outs stand apart in the source and are kept apart here.

Columns and labels:
Format in all cases: cell-based
[1] = test system: NCI-H23 (human lung cancer); assay: In vitro cytotoxicity, SRB assay, NCI-H23; details: for IC50: Homo sapiens, NCI-H23, 72 h with compound, SRB, n/a = non-active compound, read-out: NCI-H23 IC50; for NCI-H23 SI: selectivity coefficient vs normal BALB/3T3 cells
[2] = test system: PFSK-1 (malignant primitive neuroectodermal tumour); assay: In vitro cytotoxicity, SRB assay, PFSK-1; details: for IC50: Homo sapiens, PFSK-1, 72 h with compound, SRB, n/a = non-active compound, read-out: PFSK-1 IC50; for PFSK-1 SI: selectivity coefficient vs normal BALB/3T3 cells
[3] = test system: SNU-16 (human gastric cancer); assay: cells; details: for IC50: Homo sapiens, SNU-16, 72 h with compound, MTT, n/a = non-active compound, read-out: SNU-16 IC50; for SNU-16 SI: selectivity coefficient vs normal BALB/3T3 cells
[4] = test system: A2780 (human ovarian cancer); assay: In vitro cytotoxicity, SRB assay, A2780; details: for IC50: Homo sapiens, A2780, 72 h with compound, SRB, n/a = non-active compound, read-out: A2780 IC50; for A2780 SI: selectivity coefficient vs normal BALB/3T3 cells
[5] = test system: KG-1 (human acute myeloid leukaemia); assay: In vitro cytotoxicity, MTT assay, KG-1; details: for IC50: Homo sapiens, 72 h with compound, MTT, n/a = non-active compound; for KG-1 SI: selectivity coefficient vs normal BALB/3T3 cells
[6] = test system: BALB/3T3 (normal mouse fibroblasts); assay: In vitro cytotoxicity, SRB assay, normal BALB/3T3 fibroblasts
[7] = test system: A2780Cis (cisplatin-resistant human ovarian cancer); assay: In vitro cytotoxicity, SRB assay, A2780Cis; details: for IC50: Homo sapiens, A2780cis
Hs294T (human melanoma) = assay: cells; details: for IC50: Homo sapiens, Hs 294T, 72 h with compound, SRB, n/a = non-active compound, read-out: Hs294T IC50; for Hs294T SI: selectivity coefficient vs normal BALB/3T3 cells
[8] = test system: MIA PaCa-2 (human pancreatic cancer); assay: cells; details: for IC50: Homo sapiens, MIA PaCa-2, 72 h with compound, SRB, n/a = non-active compound, read-out: MIA PaCa-2 IC50; for MIA PaCa-2 SI: selectivity coefficient vs normal BALB/3T3 cells
[9] = test system: PLC/PRF/5 (human liver cancer); assay: cells; details: for IC50: Homo sapiens, PLC-PRF-5, 72 h with compound, SRB, n/a = non-active compound, read-out: PLC/PRF/5 IC50; for PLC/PRF/5 SI: selectivity coefficient vs normal BALB/3T3 cells
A375 (human melanoma) = assay: In vitro cytotoxicity, SRB assay, A375; details: for IC50: Homo sapiens, A-375, 72 h with compound, SRB, n/a = non-active compound, read-out: A375 IC50; for A375 SI: selectivity coefficient vs normal BALB/3T3 cells
cancer cells = assay: In vitro cytotoxic activity on the panel of cancer cell lines (MTT/SRB), general statements; details: Tables 3.1, 3.2, 4 and 5; parent compound salinomycin
[10] = test system: MV-4-11 (human biphenotypic leukaemia); assay: In vitro cytotoxicity, MTT assay, MV-4-11; details: for IC50: Homo sapiens, MV4-11, read-out: IC50 (nM) MV4-11
[11] = Mus musculus, BALB/3T3, normal cells, 72 h with compound, SRB, n/a = non-active compound, read-out: BALB/3T3 IC50
[12] = 72 h, read-out: A2780Cis IC50 (nM)
[13] = Table 5, BALB/3T3 normal mouse fibroblasts, read-out: IC50 (nM) BALB3T3 normal cells

Compound: CC[C@@H](C(=O)[C@@H](C)[C@@H](O)[C@H](C)[C@@H]1O[C@@H]([C@@H](CC)C(=O)O)CC[C@@H]1C)[C@H]1O[C@]2(C=C[C@@H](NC(=O)NC3CCC3)[C@]3(CC[C@@](C)([C@H]4CC[C@](O)(CC)[C@H](C)O4)O3)O2)[C@H](C)C[C@@H]1C [FLC-00341-1 Na]
- IC50 [1]: 318 nM
- NCI-H23 SI [1]: 0.3
- IC50 [2]: 51.6 nM
- PFSK-1 SI [2]: 1.9
- IC50 [3]: 27.1 nM
- SNU-16 SI [3]: 3.5
- IC50 [4]: 1.62 nM
- A2780 SI [4]: 59.2
- IC50 [5]: 45.9 nM
- KG-1 SI [5]: 2.1
- IC50 [6, 11]: 96.2 nM
- A2780Cis RI [7]: 0.8
- A2780Cis SI [7]: 73.9
- IC50 [7, 12]: 1.3 nM
- IC50 (Hs294T (human melanoma)): 1640 nM
- Hs294T SI (Hs294T (human melanoma)): 0.1
- IC50 [8]: 55.4 nM
- MIA PaCa-2 SI [8]: 1.7
- IC50 [9]: 54.5 nM
- PLC/PRF/5 SI [9]: 1.8
- IC50 (A375 (human melanoma)): 293 nM
- A375 SI (A375 (human melanoma)): 0.3
- anti-proliferative effect compared to that of the parent compound (cancer cells): several times more potent compared to that of the parent compound

Compound: CC[C@@H](C(=O)[C@@H](C)[C@@H](O)[C@H](C)[C@@H]1O[C@@H]([C@@H](CC)C(=O)O)CC[C@@H]1C)[C@H]1O[C@]2(C=C[C@@H](NC(=S)NCCCSC)[C@]3(CC[C@@](C)([C@H]4CC[C@](O)(CC)[C@H](C)O4)O3)O2)[C@H](C)C[C@@H]1C [FLC-00345-1]
- IC50 [1]: 46.5 nM
- NCI-H23 SI [1]: 1.5
- IC50 [2]: 12.3 nM
- PFSK-1 SI [2]: 5.6
- IC50 [3]: 26 nM
- SNU-16 SI [3]: 2.6
- IC50 [4]: 0.84 nM
- A2780 SI [4]: 81.2
- IC50 [5]: 39.2 nM
- KG-1 SI [5]: 1.7
- IC50 [6, 11]: 68.4 nM
- A2780Cis RI [7]: 0.8
- A2780Cis SI [7]: 96.6
- IC50 [7, 12]: 0.71 nM
- IC50 (Hs294T (human melanoma)): 396 nM
- Hs294T SI (Hs294T (human melanoma)): 0.2
- IC50 [8]: 111 nM
- MIA PaCa-2 SI [8]: 0.6
- IC50 [9]: 28 nM
- PLC/PRF/5 SI [9]: 2.4
- IC50 (A375 (human melanoma)): 400 nM
- A375 SI (A375 (human melanoma)): 0.2
- anti-proliferative effect compared to that of the parent compound (cancer cells): several times more potent compared to that of the parent compound

Compound: CC[C@@H](C(=O)[C@@H](C)[C@@H](O)[C@H](C)[C@@H]1O[C@@H]([C@@H](CC)C(=O)O)CC[C@@H]1C)[C@H]1O[C@]2(C=C[C@@H](NC(=S)NC(C)(C)C)[C@]3(CC[C@@](C)([C@H]4CC[C@](O)(CC)[C@H](C)O4)O3)O2)[C@H](C)C[C@@H]1C [FLC-00467-1•Na]
- SI MV4-11 [10]: ≈853700
- IC50 [6, 13]: 85.4 nM
- SI A2780Cis [7]: ≈853700
- anti-proliferative effect compared to that of the parent compound (cancer cells): several times more potent compared to that of the parent compound

Compound: CC[C@@H](C(=O)[C@@H](C)[C@@H](O)[C@H](C)[C@@H]1O[C@@H]([C@@H](CC)C(=O)O)CC[C@@H]1C)[C@H]1O[C@]2(C=C[C@@H](NC(=O)C(C)(C)CCl)[C@]3(CC[C@@](C)([C@H]4CC[C@](O)(CC)[C@H](C)O4)O3)O2)[C@H](C)C[C@@H]1C [FLC-00473-1•Na]
- SI MV4-11 [10]: 62.7
- IC50 [10]: 2.05 nM
- IC50 [6, 13]: 129 nM
- SI A2780Cis [7]: 179.1
- IC50 ([7]; read-out: IC50 (nM) A2780Cis): 0.72 nM
- anti-proliferative effect compared to that of the parent compound (cancer cells): several times more potent compared to that of the parent compound

Compound: CC[C@@H](C(=O)[C@@H](C)[C@@H](O)[C@H](C)[C@@H]1O[C@@H]([C@@H](CC)C(=O)O)CC[C@@H]1C)[C@H]1O[C@]2(C=C[C@@H](NC(=O)C(=O)NCc3ccccc3OC)[C@]3(CC[C@@](C)([C@H]4CC[C@](O)(CC)[C@H](C)O4)O3)O2)[C@H](C)C[C@@H]1C [FLC-00491-1•Na]
- SI MV4-11 [10]: 65.3
- IC50 [10]: 6.3 nM
- IC50 [6, 13]: 411 nM
- SI A2780Cis [7]: 79.2
- IC50 ([7]; read-out: IC50 (nM) A2780Cis): 5.19 nM
- anti-proliferative effect compared to that of the parent compound (cancer cells): several times more potent compared to that of the parent compound

Compound: CC[C@@H](C(=O)[C@@H](C)[C@@H](O)[C@H](C)[C@@H]1O[C@@H]([C@@H](CC)C(=O)O)CC[C@@H]1C)[C@H]1O[C@]2(C=C[C@@H](NS(=O)(=O)c3c(C)noc3C)[C@]3(CC[C@@](C)([C@H]4CC[C@](O)(CC)[C@H](C)O4)O3)O2)[C@H](C)C[C@@H]1C [FLC-00506-1•Na]
- SI MV4-11 [10]: 35.3
- IC50 [10]: 2.62 nM
- IC50 [6, 13]: 92.5 nM
- SI A2780Cis [7]: 100.3
- IC50 ([7]; read-out: IC50 (nM) A2780Cis): 0.92 nM
- anti-proliferative effect compared to that of the parent compound (cancer cells): several times more potent compared to that of the parent compound

Compound: CC[C@@H](C(=O)[C@@H](C)[C@@H](O)[C@H](C)[C@@H]1O[C@@H]([C@@H](CC)C(=O)O)CC[C@@H]1C)[C@H]1O[C@]2(C=C[C@@H](NC(=O)NC(C)(C)C)[C@]3(CC[C@@](C)([C@H]4CC[C@](O)(CC)[C@H](C)O4)O3)O2)[C@H](C)C[C@@H]1C [FLC-00593-1•Na]
- SI MV4-11 [10]: ≈7220
- IC50 [10]: < 0.01 nM
- IC50 [6, 13]: 72.2 nM
- SI A2780Cis [7]: ≈7220
- IC50 ([7]; read-out: IC50 (nM) A2780Cis): < 0.01 nM
- anti-proliferative effect compared to that of the parent compound (cancer cells): several times more potent compared to that of the parent compound

Compound: CC[C@@H](C(=O)[C@@H](C)[C@@H](O)[C@H](C)[C@@H]1O[C@@H]([C@@H](CC)C(=O)O)CC[C@@H]1C)[C@H]1O[C@]2(C=C[C@@H](NC(=O)N[C@@H](C)C(C)(C)C)[C@]3(CC[C@@](C)([C@H]4CC[C@](O)(CC)[C@H](C)O4)O3)O2)[C@H](C)C[C@@H]1C [FLC-00606-1•Na]
- SI MV4-11 [10]: ≈5240
- IC50 [10]: < 0.01 nM
- IC50 [6, 13]: 52.4 nM
- SI A2780Cis [7]: ≈5240
- IC50 ([7]; read-out: IC50 (nM) A2780Cis): < 0.01 nM
- anti-proliferative effect compared to that of the parent compound (cancer cells): several times more potent compared to that of the parent compound

Compound: CCC(CC)NC(=S)N[C@@H]1C=C[C@]2(O[C@H]([C@@H](CC)C(=O)[C@@H](C)[C@@H](O)[C@H](C)[C@@H]3O[C@@H]([C@@H](CC)C(=O)O)CC[C@@H]3C)[C@@H](C)C[C@H]2C)O[C@@]12CC[C@@](C)([C@H]1CC[C@](O)(CC)[C@H](C)O1)O2 [FLC-00771-1•Na]
- SI MV4-11 [10]: ≈8000
- IC50 [10]: < 0.01 nM
- IC50 [6, 13]: 80 nM
- SI A2780Cis [7]: ≈8000
- IC50 ([7]; read-out: IC50 (nM) A2780Cis): < 0.01 nM
- anti-proliferative effect compared to that of the parent compound (cancer cells): several times more potent compared to that of the parent compound
